The text below walks through data of patent publication US20250026741A1, “INHIBITORS OF THE ONCOGENIC SHP2 PHOSPHATASE AND USES THEREOF” (Sanford Burnham Prebys Medical Discovery Institute, priority 2021, published 2025).

For test [1], the target named is SHP2-E76K (Homo sapiens (Human), UniProt Q06124, E76K). In words: Time-dependent inhibition (preincubation) assay. Conditions: preincubation 1, 5, 10, 20, or 60 min with SHP2-E76K. The class given is biochemical. Here is the method:
PTPs contain a highly nucleophilic cysteine that is essential for catalytic activity, but is susceptible to oxidation and covalent modifications which abrogate its nucleophilic function and phosphatase activity. Because the methylenebenzothiophenone moiety of our inhibitors could potentially act as a Michael acceptor and thus covalently bind to the catalytic cysteine, we tested whether the observed inhibition of SHP2 was dependent on the preincubation time of inhibitor and enzyme. An irreversible covalent inhibitor may show time-dependent inhibition, with increased potency at longer incubation times. Conversely, the potency of a non-covalent inhibitor is expected to be insensitive to the time it is incubated with the enzyme. To test for time-dependent inhibition, #01 (#01) at 10 different concentrations was preincubated with SHP2-E76K for 1, 5, 10, 20, or 60 min, before the DiFMUP substrate was added to the reaction mixture and initial rates were recorded (FIG. 2C).

Test [2] concerns the target SHP2cat (Homo sapiens (Human), UniProt Q06124). In words: Mass spectrometry test for inhibitor:protein adducts. As to conditions: SHP2cat 5 μM, inhibitor 100 μM, 1, 5, 20, 60 min, trypsin proteolysis, MS. Here is the method: Additionally, we used mass spectrometry to test whether inhibitor: protein adducts are formed. Specifically, we incubated SHP2cat (5 μM) with #02 (100 μM) in assay buffer for various times (1, 5, 20, and 60 min) before trypsin proteolysis and subsequent mass spectrometry analysis.

For test [3], the system named is TNBC cells (BT-549 and MDA-MB-468). The test is described as follows: 11-day colony formation assay. The class given is cell-based. Conditions: 5, 10, or 20 μM, 11 days. As for the experimental part:
Next, we performed an 11-day colony formation assay with TNBC cells treated with #02 or SHP099 at 5, 10, or 20 μM (FIG. 3D).
MDA-MB-468 and […] triple-negative breast cancer cells were maintained in DMEM+10% FBS supplemented with 1× Penicillin-Streptomycin/L-Glutamine (Omega Scientific). 1.5K cells (in […]) were seeded per well of a standard 24-well tissue culture plate (Falcon) and allowed to adhere for 24 h, before the addition of drug(s) as described. After a further 96 h, media was replaced with fresh media containing the same test compounds and concentrations. After 11 days, media was removed and cells stained with 0.5% Crystal Violet (in 20% methanol) for 20 min with agitation @ 80 rpm. Stain was removed and plates with stained cells were washed by being submerged in excess deionized water and allowed to air dry overnight before imaging.

The subject of test [4] is p-ERK1/2 in U-937 AML cells (SHP2 G60R). The test is described as follows: Phospho-ERK1/2 immunoblot analysis, U-937. The test is classed as cell-based. As to conditions: U-937, 24 h; #02 1, 3, 10, 30 μM; RMC-4550 1 μM. The source says:
Oncogenic gain-of-function mutations in SHP2 drive leukemogenesis in a significant number of leukemia patients. However, due to their unique mechanism of action, the existing SHP2 allosteric inhibitors lack activity against the most common SHP2 oncogenic variants. Thus, we tested whether #02 can inhibit the growth of leukemia cells expressing oncogenic SHP2 variants. […] Using the U-937 AML cell line, which harbors a G60R oncogenic mutation in SHP2, we treated cells with either #02 or RMC-4550 at various concentrations, ranging from 0.123 to 30 μM (FIG. 4A). […] We also assessed the effects of #02 and RMC-4550 on ERK1/2 activation in the SHP2 mutant U-937 cell line. Similar to the immunoblot experiments described above, U-937 AML cells were treated with either vehicle control (DMSO), #02 (1, 3, 10, or 30 μM), or with RMC-4550 (1 μM) for 24 h and processed for p-ERK1/2 immunoblot analysis (FIG. 4B).
Total protein extracts were prepared in modified RIPA lysis buffer (25 mM Tris-HCl, pH 7.4, 10% glycerol, 0.2% Triton™ X-100, 150 mM NaCl, 2 mM Na3VO4, 1 mM EDTA) containing a protease inhibitor cocktail (Roche Applied Science, Indianapolis, IN). […] Densitometric quantitation of immunoblots was performed using Image Studio Lite Software. Changes of phosphorylated ERK1/2 to total ERK1/2 rations are expressed as percentage of the vehicle-treated controls. […]

The test system of test [5] is p-ERK1/2 in MOLM-13 AML cells. The test is described as follows: Phospho-ERK1/2 immunoblot analysis, MOLM-13. The class given is cell-based. Conditions: #02 3, 10, 30 μM, RMC-4550 1 μM. As for the experimental part: Because SHP2 activity is critical for ERK activation, we used phospho-ERK1/2 (p-ERK1/2) as a more direct readout of SHP2 inhibitor efficacy. […] However, a greater effect of #02 was observed after 24 h treatment. […] This p-ERK rebound in MOLM-13 cells treated with RMC-4550 is reminiscent of previously reported data from human hepatoma Hep3B cells treated with SHP099.
Total protein extracts were prepared in modified RIPA lysis buffer (25 mM Tris-HCl, pH 7.4, 10% glycerol, 0.2% Triton™ X-100, 150 mM NaCl, 2 mM Na3VO4, 1 mM EDTA) containing a protease inhibitor cocktail (Roche Applied Science, Indianapolis, IN). Equal amounts of protein were separated on 4-12% (p-ERK1/2 blots) or 4-20% (SHP2 blots) Bis-Tris gels by SDS-PAGE and transferred to nitrocellulose (p-ERK1/2 blots) or 0.2 μm PVDF (SHP2 blots) membranes. Membranes were blocked in 5% dry milk (Bio-Rad, Hercules, CA) in TBS-Tween 20 (0.1% vol/vol; TBS-T) for 1 h at room temperature. Protein-bound membranes were incubated with indicated primary antibody overnight at 4° C. After washing three times with TBS-T, membranes were incubated for 1 h with horseradish peroxidase-conjugated secondary antibody, then visualized by an ECL Prime detection system (GE Healthcare). Immunoblotting experiments were carried out at least three times and representative images are shown. Densitometric quantitation of immunoblots was performed using Image Studio Lite Software. Changes of phosphorylated ERK1/2 to total ERK1/2 rations are expressed as percentage of the vehicle-treated controls. The following antibodies were used: Phospho-Erk1/2 Ab, Cell Signaling, #9101S; total Erk1/2 Ab, Cell Signaling, #9102S; SHP2 Ab, Bethyl, A301-544A, lot #1; GAPDH (14C10) mAb, Cell Signaling, #2118S, lot #14.

SHP2cat, sequence (Q06124 248-527): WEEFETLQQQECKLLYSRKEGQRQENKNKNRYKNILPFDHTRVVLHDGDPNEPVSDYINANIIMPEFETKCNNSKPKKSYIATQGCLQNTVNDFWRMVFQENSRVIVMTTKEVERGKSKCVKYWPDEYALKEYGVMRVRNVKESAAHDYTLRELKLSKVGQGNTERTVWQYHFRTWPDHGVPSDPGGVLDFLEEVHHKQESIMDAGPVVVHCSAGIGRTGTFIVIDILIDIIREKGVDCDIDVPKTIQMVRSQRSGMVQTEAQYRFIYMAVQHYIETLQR
SHP2-E76K, sequence (Q06124 whole entry E76K): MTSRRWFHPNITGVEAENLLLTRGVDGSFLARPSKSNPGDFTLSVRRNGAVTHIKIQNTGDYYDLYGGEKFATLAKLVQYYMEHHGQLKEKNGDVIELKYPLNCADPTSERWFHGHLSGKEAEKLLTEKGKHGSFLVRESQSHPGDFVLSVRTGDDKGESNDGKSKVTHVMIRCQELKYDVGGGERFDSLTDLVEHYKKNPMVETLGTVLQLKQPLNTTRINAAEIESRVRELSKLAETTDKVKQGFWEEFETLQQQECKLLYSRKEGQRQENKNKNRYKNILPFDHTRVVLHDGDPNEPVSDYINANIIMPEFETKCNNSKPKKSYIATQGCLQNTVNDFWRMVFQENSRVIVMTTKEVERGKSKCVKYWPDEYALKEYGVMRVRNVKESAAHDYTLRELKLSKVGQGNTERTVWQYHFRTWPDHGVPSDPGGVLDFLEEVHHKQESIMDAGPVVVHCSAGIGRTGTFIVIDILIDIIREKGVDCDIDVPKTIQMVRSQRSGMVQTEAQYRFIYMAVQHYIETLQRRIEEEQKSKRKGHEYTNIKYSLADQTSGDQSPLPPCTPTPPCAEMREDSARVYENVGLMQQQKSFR

Take `Nc1ccc(NC(=O)c2cc(-c3ccc(/C=C4\Sc5ccccc5C4=O)o3)ccc2O)cc1` [#01, (Z)—N-(4-Aminophenyl)-2-hydroxy-5-(5-((3-oxobenzo[b]thiophen-2(3H)-ylidene)methyl)furan-2-yl)benzamide]: the “time dependence of inhibition” value in test [1] was “not time-dependent”.

For the compound `O=C(Nc1ccccc1)c1cc(-c2ccc(/C=C3\Sc4ccccc4C3=O)o2)ccc1O` [#02, (Z)-2-hydroxy-5-(5-((3-oxobenzo[b]thiophen-2(3H)-ylidene)methyl)furan-2-yl)-N-phenylbenzamide], the “inhibitor:protein adduct formation” value in test [2] is given as “no adduct formation with the inhibitor was found”. The “effect on colony formation” value in test [3] was “colonies were undetectable”. Further, the “ERK1/2 activation (p-ERK1/2 levels)” value in test [4] was “dose-dependently inhibited ERK1/2 activation”; in test [5] (MOLM-13, 3 h treatment), “dose-dependently inhibits ERK1/2 activation”; in test [5] (MOLM-13, 24 h treatment) it was “dose-dependently inhibits ERK1/2 activation”.
